Laboratory results as given in patent publication US20170240522A1, “BENZOTHIOPHENE, BENZYLOXYBENZYLIDENE AND INDOLINE DERIVATIVES USEFUL FOR THE TREATMENT OF TUBERCULOSIS” (priority 2014, published 2017).
Like-named read-outs stand apart in the source and are kept apart here.

Tests used:
MprB = target: T1, MprB (Mycobacterium tuberculosis, UniProt P9WGL1); test: MprB autophosphorylation assay; format: biochemical
T1 construct: MprB lacking its N-terminal transmembrane domain was incubated with [γ-32P]ATP; His6; made in house; host or cells: E. coli BL21 (DE3), vector pQE80L
T1 sequence (P9WGL1 185-504 limits assumed): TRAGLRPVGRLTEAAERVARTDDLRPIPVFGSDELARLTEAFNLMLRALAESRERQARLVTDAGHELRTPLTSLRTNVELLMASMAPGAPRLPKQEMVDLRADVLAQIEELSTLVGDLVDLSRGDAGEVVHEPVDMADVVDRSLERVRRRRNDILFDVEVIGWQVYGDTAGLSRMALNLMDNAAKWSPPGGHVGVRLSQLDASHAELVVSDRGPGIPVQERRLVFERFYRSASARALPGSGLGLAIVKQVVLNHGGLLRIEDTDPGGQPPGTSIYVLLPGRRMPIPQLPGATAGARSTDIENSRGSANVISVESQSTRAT

[1] = system: Mtb-infected THP-1 macrophages; format: cell-based, human
ATP-levels of Mtb = test: Quantification of intracellular ATP levels; format: cell-based, Mycobacterium tuberculosis; details: 10 μM, 24 hours
Protocol: (§1) Bacteria were grown for 24 hours in the presence of test compounds. The BacTiter-Glo microbial cell viability reagent (Promega) was used for the quantification of ATP according to the recommendations of the manufacturer. For EtBr uptake assays, bacteria were washed with PBS containing 0.05% Tween 80, OD600 was adjusted to 0.4 and 100 μl were pipetted into black 96 well plates. EtBr was added (4 μM final concentration) and fluorescence was read every 2 min. at 545/600 nm. Unpaired Student's T-tests were used for statistical analyses.

MRC-5 lung fibroblasts = test: Fibroblast survival assay (FSA); format: cell-based; details: Homo sapiens, MRC5; read-out: IC50 of protection of fibroblasts
EsxA = format: cell-based, Mycobacterium tuberculosis
THP-1 macrophages = test: Survival of Mtb-infected activated THP-1 macrophages; format: cell-based, human; details: activated THP-1, higher MOI, 10 μM
Ag85 complex proteins = format: cell-based, Mycobacterium tuberculosis
ESX-1 = ESX-1 inhibitory activity of inhibitors of mycobacterium virulence (Table VII); format: cell-based, Mycobacterium tuberculosis
[2] = system: several other mycobacteria and non-mycobacterial pathogens; test: REMA assay of non-Mtb strains; format: cell-based
[3] = system: mycobacterial outer membrane permeability; test: Ethidium bromide (EtBr) uptake assay; format: cell-based, Mycobacterium tuberculosis; details: 10 μM
Protocol: as §1
To investigate whether BBH7 alters mycobacterial outer membrane permeability, which might explain the transcriptomic pattern associated with metal-ion toxicity, the Applicant performed ethidium bromide (EtBr) uptake assays after treatment with the compounds of interest. These assays identify altered outer membrane permeability by an increase of fluorescence after binding of EtBr to bacterial nucleic acids. […] This was not observed with BTP15.

[4] = system: Mtb expressing GFP in infected fibroblasts; format: cell-based, Mycobacterium tuberculosis; details: compound concentration 5 μM (FIG. 2D)
Mtb-Erdman = test: Growth of Mtb in 7H9 broth; format: cell-based, Mycobacterium tuberculosis; details: 25 μM
[5] = system: Mtb-GFP inside activated THP-1 cells; format: cell-based, Mycobacterium tuberculosis; details: activated THP-1, 10 μM
Mtb transcriptome = test: RNA-seq and qRT-PCR of compound-treated Mtb; format: cell-based, Mycobacterium tuberculosis
Protocol: For the transcriptomic studies, bacteria were grown under the same conditions as for protein secretion assays. Drug exposure time was 8 hours with 5 μM of compound for RNA-seq experiments and confirmatory qRT-PCR. RNA was extracted with Trizol (Invitrogen) and treated with DNase I (Roche) prior to library preparation or generation of the cDNA template. cDNA was synthesized using the RevertAid First Strand cDNA Synthesis Kit (Fermentas) using random hexamer primer. cDNA corresponding to 10 ng of input RNA was used in each RT-PCR reaction supplemented with specific primer pairs (200 nM each) listed in Table S4 and SYBR-Green master mix (Applied Biosystems). Quantitative RT-PCR reactions were performed with the 7900HT Fast Real-Time PCR System (Applied Biosystems) with the following parameters: 50° C. for 2 min, 95° C. for 10 min, followed by 40 cycles of 95° C. for 15 s and 60° C. for 60 s. Melt curve analysis was used to confirm specific amplification for each primer pair. Unpaired Student's T-tests were used for statistical analyses.
For the RNA-seq library preparation 100 ng of total RNA were used in the TruSeq Stranded mRNA LT kit, according to the instructions provided by the manufacturer (Illumina). A small aliquot was analyzed on Qubit and Fragment Analyzer prior to sequencing on Illumina HiSeq using the TruSeq SR Cluster Generation Kit v3 and TruSeq SBS Kit v3. Data were processed with the Illumina Pipeline Software v1.82. RNA-seq data were deposited in the Gene Expression Omnibus (GEO) server at the National Center for Biotechnology Information (NCBI).
• All analyses in this study were carried out using the M. tuberculosis H37Rv annotation from the TubercuList database (http://tuberculist.epfl.ch/) (Lew et al., 2011). There are 4019 protein coding sequences (CDS) currently annotated in the genome, 73 genes encoding for stable RNAs, small RNAs and tRNAs. In order to quantify protein occupancy and transcription across the entire genome, 3080 intergenic regions (regions flanked by two non-overlapping CDS) were included, resulting in a total of 7172 features. • The single-ended sequence reads generated from RNA-seq experiments were aligned to the M. tuberculosis H37Rv genome (NCBI accession NC_000962.2) using Bowtie2 with default parameters (Langmead and Salzberg, 2012). Read counts for all annotated features were obtained with the htseq-count program (http://www.huber.embl.de/users/anders/HTSeq/doc/count.html). Regions where genes overlapped were excluded from counting. Reads spanning more than one feature were counted for each feature. Since the RNA library was strand-specific, the orientation of sequence reads had to correspond to the orientation of annotated features to be counted. Analysis of differential gene expression was carried out using the DESeq package (Anders and Huber, 2010).

Protocol for GroEL: In brief, 30 ml of bacteria grown to mid-logarithmic phase (OD600 of 0.6 to 0.7) in Sauton's medium supplemented with 0.05% Tween 80 were centrifuged and resuspended in Sauton's medium without Tween. Compounds were added at concentrations as indicated and cells were grown further at 37° C. with shaking for 4 days. Cultures were harvested by centrifugation to obtain culture filtrates and cell pellets. Culture filtrates were concentrated 100-fold in 5-kDa cutoff Vivaspin columns (Sartorius). Cell lysates were prepared by bead beating bacterial pellets in lysis buffer with 100-μm glass beads.
For immunoblot analysis, 5 μg of protein were resolved by SDS-gel electrophoresis and transferred to nitrocellulose membranes. Membranes were blocked with TBS-buffer (3% milk powder) and incubated overnight with the desired primary antibody diluted in TNT-buffer supplemented with 1% BSA fraction V. Membranes were washed with TNT, incubated with the appropriate secondary antibody in TNT-BSA, washed again with TNT, and developed. GroEL2 was used as a lysis control for culture filtrates and as a loading control for cell lysates.

## Nc1ncnc2c1ncn2[C@@H]1O[C@H](COP(=O)(O)OP(=O)(O)NP(=O)(O)O)[C@@H](O)[C@H]1O [AMP-PNP]
MprB; 1 mM
  MprB auto-phosphorylation: no effect
MprB; 10 mM
  phosphohistidine signal of MprB: only incomplete reduction

## NC(=O)c1c(NC(=O)C2CC2)sc2cc(O)c(Br)cc12 [BTP15, 5 -Bromo-2-(cyclopropanecarbonyl-amino)-6-hydroxy-benzo[b]thiophene-3-carboxylic acid amide]
[1]
  rate of bacteria in acidic compartments (Lysotracker Red co-localization): significantly higher rate
GroEL; BBH7 and BTP15 treatment
  GroEL in the culture filtrate (cell lysis): not observed
ATP-levels of Mtb
  mycobacterial ATP levels: no impact
MRC-5 lung fibroblasts
  IC50: 1200 nM
EsxA
  EsxA secretion: dose-dependent secretion inhibition
EsxA; 20 μM
  EsxA secretion: blocked EsxA secretion fully
THP-1 macrophages
  protection of THP-1 cells from Mtb-induced cell death: protected THP-1 cells from Mtb-induced cell death
Ag85 complex proteins; 20 μM
  Ag85 secretion: reduced Ag85 secretion
Ag85 complex proteins; concentrations ≦10 μM
  Ag85 secretion: only slightly affected at best
ESX-1
  Activity: 92%
[2]
  MIC99: > 100 µM
[3]
  EtBr accumulation and fluorescence: not observed
[4]
  GFP fluorescence of Mtb in infected fibroblasts: comparable to the untreated control
Mtb-Erdman
  growth inhibition of Mtb: no growth inhibition
MprB
  MprB auto-phosphorylation: dose-dependent inhibition
[5]
  intracellular bacterial load: greatly reduced the intracellular bacterial load
Mtb transcriptome; RNA-seq, 5 μM
  significantly downregulated genes (number): 18 genes
Mtb transcriptome; RNA-seq, 5 μM, 8 hours
  differentially regulated genes (number): 35 genes
Mtb transcriptome; qRT-PCR
  differential regulation (upregulation) of espA: > 2 fold
  downregulation of DosR/MprAB associated genes: > 1.5 fold
Mtb transcriptome; qRT-PCR, after 24 and 48 hours of drug treatment
  mprA expression: significantly down-regulated

## CSC(=S)N/N=C(\C)c1ccc(OCc2cccc(Cl)c2)cc1 [D22646]
ESX-1
  Activity: 76%

## CSC(=S)N/N=C(\C)c1ccc(OCc2ccc([N+](=O)[O-])cc2)cc1 [D22647]
ESX-1
  Activity: 30%

## COc1ccc([N+](=O)[O-])cc1COc1ccc(/C(C)=N/NC(=S)SC)cc1 [D22648]
ESX-1
  Activity: 65%

## CSC(=S)N/N=C(\C)c1ccc(OCc2cccc([N+](=O)[O-])c2)cc1 [D22663]
ESX-1
  Activity: 47%

## CSC(=S)N/N=C(\C)c1ccc(OCc2cccc(Br)c2)cc1 [D22670]
ESX-1
  Activity: 67%

## CSC(=S)N/N=C(\C)c1ccc(OCc2ccc(Br)cc2)cc1 [D22671]
ESX-1
  Activity: 51%

## CSC(=S)N/N=C(\C)c1ccc(OCc2cccc(F)c2)cc1 [D22672]
ESX-1
  Activity: 94%

## C/C(=N\NC(=S)Nc1ccc(F)c(Cl)c1)c1ccc(OCc2ccccc2)cc1 [D23251]
ESX-1
  Activity: 34%

## C/C(=N\NC(=S)Nc1cccc(Cl)c1Cl)c1ccc(OCc2ccccc2)cc1 [D23579]
ESX-1
  Activity: 75%

## CSc1ccc(NC(=O)Nc2sc3cc(O)ccc3c2C(N)=O)cc1 [D38979]
ESX-1
  Activity: 60%

## CC(C)c1ccc(NC(=O)Nc2sc3cc(O)ccc3c2C(N)=O)cc1 [D39317]
ESX-1
  Activity: 33%

## NC(=O)c1c(NC(=O)Nc2cccc(C(F)(F)F)c2)sc2cc(O)ccc12 [D39321]
ESX-1
  Activity: 45%

## NC(=O)c1c(NC(=O)Nc2cccc(Cl)c2)sc2cc(O)ccc12 [D39322]
ESX-1
  Activity: 40%

## COc1ccc(CNCC(O)COc2ccc3c(C(N)=O)c(NC(=O)C4CC4)sc3c2)cc1 (stereo not drawn) [D45756]
ESX-1
  Activity: 32%

## NC(=O)c1c(NC(=O)Nc2ccc(F)c(Cl)c2)sc2c(Cl)c(O)c(Cl)cc12 [D49399]
ESX-1
  Activity: 33%

## CC(=O)Oc1c(Cl)cc2c(C(N)=O)c(NC(=O)Nc3ccc(C(C)C)cc3)sc2c1Cl [D51275]
ESX-1
  Activity: 41%

## COC(=O)c1cccc(NC(=O)Nc2sc3c(Cl)c(OC(C)=O)c(Cl)cc3c2C(N)=O)c1 [D58298]
ESX-1
  Activity: 33%

## CC(=O)Oc1c(Cl)cc2c(C(N)=O)c(NC(=O)Nc3cccc(CN(C)C)c3)sc2c1Cl [D58845]
ESX-1
  Activity: 87%

## CNC(=O)Nc1sc2c(Cl)c(O)c(Cl)cc2c1C(N)=O [D60166]
ESX-1
  Activity: 55%

## CNC(=O)Nc1sc2c(C(C)C)cc(N)cc2c1C(N)=O [D63134]
ESX-1
  Activity: 26%

## NC(=O)Nc1sc2cc(O)c(Br)cc2c1C(N)=O [D70865]
ESX-1
  Activity: 77%

## CC(=O)Oc1cc2sc(NC(=O)C3CC3)c(C(N)=O)c2cc1Br [D70866]
ESX-1
  Activity: 80%

## CC(=O)Oc1cc2sc(NC(N)=O)c(C(N)=O)c2cc1Br [D71014]
ESX-1
  Activity: 90%

## NNC(=O)c1ccncc1 [Isoniazid, reference compound]
GroEL; 5× MIC
  GroEL in the culture filtrate (cell lysis): cell lysis
EsxA; 0.5× MIC
  EsxA secretion: no effect

## [Cu] [copper]
EsxA; elevated concentrations of copper
  EsxA secretion: no effect

## CC[C@@H](CO)NCCN[C@@H](CC)CO [ethambutol, reference compound]
GroEL; 5× MIC
  GroEL in the culture filtrate (cell lysis): cell lysis
EsxA; 0.5× MIC
  EsxA secretion: no effect

## CCc1cc(C(N)=S)ccn1 [ethionamide, reference compound]
GroEL; 5× MIC
  GroEL in the culture filtrate (cell lysis): cell lysis
EsxA
  EsxA secretion: no effect

## CC(=O)Nc1ccc(/C=N/NC(N)=S)cc1 [thiacetazone, reference compound]
GroEL; 5× MIC
  GroEL in the culture filtrate (cell lysis): cell lysis
EsxA; 0.5× MIC
  EsxA secretion: no effect

## O=S(=O)([O-])[O-].[Zn+2] [zinc, ZnSO4]
EsxA; 500 μM zinc
  secretion of EsxA: sixfold increase
Ag85 complex proteins; media containing elevated levels of ZnSO4
  Ag85 secretion: remained unchanged
